Experimental data as given in patent US20210122780A1, “COMPOSITIONS FOR THE PREVENTION AND TREATMENT OF PARKINSON'S DISEASE” (Metselex, Inc., priority 2018, published 2021).
Entries after “also recorded” stand apart in the source; their conditions may differ. Where two headings read alike, the source gives them in different places.

Assays:
[1] = Stability in tris glycine buffer before AP addition (31P NMR); format: physicochemical; details: 0.100 M tris glycine buffer, 1.0 mM ZnCl2, 1.0 mM MgCl2, 1 h
Description: (§1) Compound 19d (10.0 mg, 0.016 mmol) or compound 3 (8.7 mg, 0.016 mmol) were dissolved in 0.6 mL of a 0.100 M tris glycine buffer solution containing 1.0 mM ZnCl2 and 1.0 mM MgCl2. […] 50 μL of the previously prepared AP stock solution was further diluted by addition to 0.950 mL of a 0.100 M tris glycine buffer containing 1.0 mM ZnCl2 and 1.0 mM MgCl2. 10.0 μL of this diluted AP solution was added to the prodrug solution by syringe. A series of 42 inverse-gated decoupled ^31P NMR's were taken (24 scans each, approximately one minute acquisition time). Conversion (%) was determined from the relative integration of the starting material and product peaks, NMR time stamps were used to determine time. Each experiment was repeated three times.

[2] = format: physicochemical; details: for percent starting material remaining: after one week at rt in D2O solution; for stability on cold storage: stored in a freezer / cold
Description: Measurement of chemical stability of phosphorylated compounds. 4.0 mg of prodrug (19b, 19c, or 19d) were dissolved in 1.0 mL D2O. A sealed capillary tube containing phenylphosphonic acid dissolved in D2O was added as a standard. At time=0, a ^1H NMR spectrum was obtained and the proton signal at […]5.51 was integrated (It=0) relative to the aromatic signals from phenylphosphonic acid. After 7 days at rt, a new NMR spectrum was taken and the proton signal at δ 5.51 was integrated again (It=7). The percent starting material remaining was It=7/It=0×100. Each experiment was repeated three times. Chemical stability results obtained either by measuring the disappearance of starting material relative to the internal standard by ^31P NMR or by using inverse-gated decoupled phosphorus NMR and integrating starting material and product were very similar to the numbers obtained using ^1H NMR. For 19e, 4.0 mg 19b was dissolved in D2O and an additional equivalent of Tris added (the stoichiometry was confirmed by ^1H NMR) and the experiment conducted as above.

[3] = Aqueous solubility of prodrug salts; details: water
[4] = system: Alkaline phosphatase from bovine intestinal mucosa; assay: Alkaline phosphatase activation of prodrugs (31P NMR); format: biochemical; details: in vitro, FIG. 5
Description: Alkaline phosphatase activation of prodrugs 3 and 19d. Alkaline phosphatase from bovine intestinal mucosa (Sigma-Aldrich, P5521-2KU) was dissolved in 2.0 mL of a 0.100 M sodium glycine buffer containing 1.0 mM ZnCl2 and 1.0 mM MgCl2. This stock solution was stored at 4° C. between uses.
as §1

[5] = format: physicochemical; details: after one day at rt
Description: Chemical stability in pH 7.4 tris-buffered saline. 4.0 mg of prodrug 19d was dissolved in 0.9 mL H2O. To this solution was added 0.1 mL of tris-buffered saline (BM-300 from Boston BioProducts), containing tris (250 mM), KCl (27 mM), and NaCl (1.37 M). A sealed capillary tube containing phenylphosphonic acid dissolved in D2O was added as a standard. Chemical stability results were obtained by measuring the disappearance of starting material relative to the internal standard by ^31P NMR. The experiment was repeated three times. The standard deviation was ±3%.

SH-SY5Y cells [6] = assay: MTT cell viability, SNP-induced cytotoxicity; details: for impact on UDCA-mediated protection against SNP-induced cytotoxicity: inhibitor 1 h, UDCA 200 μM 1 h, SNP 1 mM 24 h
Description: (§3) Human dopaminergic neuronal cell line, SH-SY5Y, was cultured in DMEM/F12 medium supplemented with 10% FBS (v/v), penicillin (100 U/m)-streptomycin (100 μg/ml) in 5% CO2 at 37° C. […] Usually, the culture medium was changed to DMEM/F12 medium with 0.5% FBS before any treatment to reduce the serum effect. In order to prevent the direct interaction between the treated chemicals, the culture medium was changed to fresh low-serum medium at the ent of pretreatment. UDCA was dissolved in ethanol as a 100× stock solution and diluted to the desired final concentrations. To estimate cell viability, 3-(4,5-dimetnylthiazol-2-yl)-2,5-diphenyltetrazolium bromide (MTT) reduction assay was performed. After cells were treated ad culture medium was removed, MTT solution (50 μg, 1 mg/ml in phosphate buffered saline, PBS) was added to each well in 96-well plate and incubated for 4 h at 37° C. The medium was carefully removed, 100 μl DMSO added to each well, and the plate agitated on an orbital shaker for 15 min to dissolve the formazan. The absorbance was measured at 540 nm using a microplate reader (SepctraMax M2, Molecular Devices).

SH-SY5Y cells [7] = system: SH-SY5Y cells
Description: as §3

mitochondrial membrane = assay: Bax-induced alterations of mitochondrial membrane (FIG. 1, 2)
SH-SY5Y cells [8] = assay: Nuclear staining (Hoechst 33342/PI) for apoptosis and necrosis; format: cell-based, human; details: pretreatment prior to SNP 1 mM 24 h
Description: For the fluorescent detection of apoptotic and necrotic cells, nuclear staining with Hoechst dye 33342 and propidium iodide (PI) was performed. SH-SY5Y cells were exposed to SNP (1 mM) for 24 h with or without pretreatment with UDCA or YS. After fixation with 1% paraformaldehyde (PBS) for 30 min at room temperature, cells were washed with PBS and then stained with Hoechst 33342 (10 μM) for 10 min. Cells were washed with PBS and further stained with PI (10 μM) for 10 min. Stained cells were washed with PBS and observed under a fluorescent microscopy. The apoptotic cells were determined as bright condensed and fragmented nuclei. PI positive cells stained with pink to red color were counted as necrotic cells.

SH-SY5Y cells [9] = assay: NO production (Griess reagent, nitrite); format: cell-based, human; details: SNP 24 h
Description: (§2) After washing with Hank's balanced salt solution (HBSS), cells were incubated with 20 μM H2DCFDA or 50 μM DHR at 37° C. for 30 min, and then rinsed with HBSS. The fluorescence intensity was measured using an automatic fluorescence microplate reader (SpectraMax M2, Molecular Devices) at an excitation wavelength of 485 nm and an emission of 535 nm. The values were expressed as a percentage of fluorescence intensity to the untreated control group. The production of NO was determined by measuring nitrite, a stable oxidation product of NO in the culture medium. […] After a 10-min reaction, the absorbance at 550 nm was measured in a microplate reader (VersaMax, Molecular Devices). Sodium nitrite (NaNO2) was used as a standard to calculate nitrite concentrate and the values were expressed in micromoles.

Bcl-2, Bax, cytochrome c = assay: Immunoblot analysis of Bcl-2, Bax, cytochrome c; format: cell-based, human
Description: Whole cell proteins were extracted using RIPA buffer (PBS, 1% NP-40, 0.5% Na deoxycholate, 0.1% SDS, 0.1 mg/ml PMSF, 30 mg/ml aprotinin, 1 mM Na3VO4). Cells were washed twice with PBS, lysed with RIPA buffer for 30 min on ice, and then centrifuged at 14,000×g for 10 min at 4° C. The supernatants were used as the total cell lysates. In some experiments, mitochondrial fraction was prepared from SH-Sy5Y cells using mitochondrial/cytosolic fraction kit (Biovision, Inc., Mountain View) according to the manufacturer's protocol. Protein concentration was determined by BCA protein assay kit (BioRad, Hercules, Calif.) using bovine serum albumin as a standard. […] The membrane was flocked in fresh blocking buffer (5% nonfat dry milk in Tris-buffered saline, pH 7.4, and containing 0.1% Tween 20) for 2 h at room temperature and rinsed in TBST buffer (0.1% Tween 20 in Tris-buffered saline, pH 7.4). The membrane was incubated at 4° C. with the following primary antibodies at dilutions of 1/1000: Bax, cytochrome c, Cox-4 or 1/4000: Bcl-2, actin. After three times washing with TBST buffer, membranes were incubated with horse radish peroxidase (HRP)-conjugated secondary antibodies (1:2000 dilutions) for 2 h at room temperature. Subsequently, the membrane was washed in TBST and the immunoreactive bands were detected by ECL chemiluminescence kit (GE Healthcare, USA). Protein bands were quantified by densitometric analysis.

Primary rat hepatocytes = assay: Microarray gene expression profiling (Affymetrix Rat Expression Array 230A); format: cell-based; details: 100 μM UDCA, 24 h
Description: We determined the global profile of genes regulated by UDCA by using Affymetrix GeneChip® Rat Expression Array 230A, consisting of approximately 16,000 transcripts and variants. cRNA prepared from vehicle-treated cells was used for comparative analysis. The relative levels of gene expression after 24 h treatment of hepatocytes with 100 μM UDCA were compared by plotting the average difference between cells, and determining the fold change in gene expression. […] We also assessed the specificity and sensitivity of the microarray analysis. Hierarchical clustering was performed using specific gene subsets.

SH-SY5Y cells [10] = assay: Total ROS production (H2DCFDA); format: cell-based, human; details: 1 mM SNP
Description: as §2

SH-SY5Y cells [11] = assay: Mitochondrial membrane potential (JC-1); format: cell-based, human
Description: Anaspec Inc.). JC-1 preferentially accumulates in mitochondria as red aggregates in normal conditions but it exists as green monomers in the cytosol when MMP collapsed during apoptosis. The ratio of red/green fluorescence correlates with MMP. […] Next, 5 μg/ml JC-1 was added and incubated at 37° C. for 15 min in dark. After wash three times with PBS, MMP was measured at 535/590 nm (Ex/Em) for red fluorescence and 485/535 (Ex/Em) for green fluorescence using a fluorescence multimode microplate reader (Infinite 200; Tecan). Results were calculated as the ratio of red-to-green fluorescence and the values were expressed as the percentage over control.

Q: Which “decomposition by 31P NMR in buffer” value [1] does the source give for C[C@H](CCC(=O)[O-])[C@H]1CC[C@H]2[C@@H]3[C@@H](O)C[C@@H]4C[C@H](OP(=O)([O-])O)CC[C@]4(C)[C@H]3CC[C@]12C.[Na+].[Na+] [Compound 3, 3-(Phosphonatooxy)-ursodeoxycholic acid sodium salt] here?
A: Neither compound showed decomposition

Q: Which “stability in D2O solution overnight” value ([2]; D2O, overnight) does the source give for C[C@H](CCC(=O)[O-])[C@H]1CC[C@H]2[C@@H]3[C@@H](OCOP(=O)(O)O)C[C@@H]4C[C@H](O)CC[C@]4(C)[C@H]3CC[C@]12C.C[C@H](CCC(=O)[O-])[C@H]1CC[C@H]2[C@@H]3[C@@H](OCOP(=O)(O)O)C[C@@H]4C[C@H](O)CC[C@]4(C)[C@H]3CC[C@]12C.[Na+].[Na+] [Compound 13b, 7-(Phosphonooxymethoxy)-ursodeoxycholic acid sodium salt] here?
A: a significant portion of the material decomposed

Q: What about the “aqueous solubility, rapidly dissolving at all concentrations tested” value (“aqueous solubility, rapidly dissolving” for short) [3] of the same compound?
A: ≥ 10 mg/mL

Q: For CC(CCC(=O)OCOP(=O)(O)O)C1CCC2C3C(O)CC4CC(O)CCC4(C)C3CCC12C (stereo not shown) [Compound 19b, ursodeoxycholic acid phosphonooxymethoxy ester], which “percent starting material remaining” value [2] is on record?
A: 36%

Q: And the “stability on cold storage” value [2]?
A: stable for extended periods of time when stored in a freezer

Q: And the “aqueous solubility, rapidly dissolving” value [3]?
A: ≥ 20 mg/mL

Q: Which “percent starting material remaining” value [2] does the source give for CC(CCC(=O)OCOP(=O)(O)O)C1CCC2C3C(O)CC4CC(O)CCC4(C)C3CCC12C (stereo not shown) [Compound 19c, ursodeoxycholic acid phosphonooxymethoxy ester] here?
A: 34%

Q: Which “percent starting material remaining” value [2] does the source give for CC(CCC(=O)OCOP(=O)(O)O)C1CCC2C3C(O)CC4CC(O)CCC4(C)C3CCC12C (stereo not shown) [Compound 19d, ursodeoxycholic acid phosphonooxymethoxy ester] here?
A: 88%

Q: What about the “chemical stability in solution” value ([2]; solution, ambient temperature) of the same compound?
A: decomposed at a much slower rate

Q: And the “stability on cold storage” value ([2]; listed as mono-Tris salt of 19)?
A: stable for extended periods when stored cold

Q: And the “rate of alkaline phosphatase catalyzed release of UDCA” value [4]?
A: more rapidly released

Q: What about the “decomposition by 31P NMR in buffer” value [1] of the same compound?
A: Neither compound showed decomposition

Q: What about the “aqueous solubility, rapidly dissolving” value [3] of the same compound?
A: > 20 mg/mL

Q: What about the “percent remaining in pH 7.4 tris buffer” value [5] of the same compound?
A: 81%

Q: Which “impact on UDCA-mediated protection against SNP-induced cytotoxicity” value (SH-SY5Y cells [6]) does the source give for COc1ccc2c(c1)c(C1=C(c3c[nH]c4ccccc34)C(=O)NC1=O)cn2CCCN(C)C [Go6983] here?
A: did not have significant impact

Q: And the “cell viability, inhibitor alone” value (SH-SY5Y cells [7])?
A: had no effects on cell viability

Q: Which “impact on UDCA-mediated protection against SNP-induced cytotoxicity” value (SH-SY5Y cells [6]) does the source give for O=c1cc(N2CCOCC2)oc2c(-c3ccccc3)cccc12 [LY294002] here?
A: reversed

Q: Which “Bax-induced alterations in mitochondrial membrane polarity” value (mitochondrial membrane; FIG. 1) does the source give for C[C@H](CCC(=O)NCCS(=O)(=O)O)[C@H]1CC[C@H]2[C@@H]3[C@@H](O)C[C@@H]4C[C@H](O)CC[C@]4(C)[C@H]3CC[C@]12C [TUDCA, tauroursodeoxycholic acid] here?
A: prevents

Q: And the “Bax-induced alterations in mitochondrial membrane protein order” value (mitochondrial membrane; FIG. 2)?
A: prevents

Q: Which apoptotic rate (SH-SY5Y cells [8]) does the source give for C[C@H](CCC(=O)O)[C@H]1CC[C@H]2[C@@H]3[C@@H](O)C[C@@H]4C[C@H](O)CC[C@]4(C)[C@H]3CC[C@]12C [UDCA, ursodeoxycholic acid] here?
A: 8.45±2.01%

Q: And the “NO production compared with the group treated with SNP alone” value (SH-SY5Y cells [9]; 50 μM pretreatment)?
A: 91.44%

Q: What about the “NO production compared with the group treated with SNP alone” value (SH-SY5Y cells [9]; 100 μM pretreatment) of the same compound?
A: 82.88%

Q: And the “NO production compared with the group treated with SNP alone” value (SH-SY5Y cells [9]; 200 μM pretreatment)?
A: 77.26%

Q: And the “ratio of Bcl-2/Bax” value (Bcl-2, Bax, cytochrome c; UDCA per se)?
A: 2.52±0.16 fold of control

Q: What about the “ratio of Bcl-2/Bax” value (Bcl-2, Bax, cytochrome c; pretreatment with UDCA prior to SNP treatment) of the same compound?
A: 2.21±0.09 fold of control

Q: What about the “cytochrome c release from the mitochondria into the cytosol” value (Bcl-2, Bax, cytochrome c; pretreatment with UDCA, SNP 1 mM) of the same compound?
A: 1.41±0.06 fold of control

Q: And the “altered genes fulfilling the filtering criteria” value (Primary rat hepatocytes)?
A: 96 genes

Q: And the genes down-regulated (Primary rat hepatocytes)?
A: 68 genes

Q: What about the genes up-regulated (Primary rat hepatocytes) of the same compound?
A: 28 genes

Q: What about the “genes with alterations in expression, greater than 1.5-fold change” value (Primary rat hepatocytes) of the same compound?
A: Approximately 441 genes

Q: And the “share of genes with alterations in expression” value (Primary rat hepatocytes)?
A: ~2.76%

Q: And the “ROS generation, % of SNP-treated group” value (SH-SY5Y cells [10]; 50 μM pretreatment)?
A: 79.68%

Q: What about the “ROS generation, % of SNP-treated group” value (SH-SY5Y cells [10]; 100 μM pretreatment) of the same compound?
A: 72.59%

Q: What about the “ROS generation, % of SNP-treated group” value (SH-SY5Y cells [10]; 200 μM pretreatment) of the same compound?
A: 58.09%

Q: What about the “cell viability, substance alone” value (SH-SY5Y cells [6]; 24 h at doses of 50-200 μM, no SNP) of the same compound?
A: no obvious change in the viability

Q: And the “SNP-induced loss of cell viability / cytotoxicity” value (SH-SY5Y cells [6]; pretreatment 1 h, then 1 mM SNP 24 h)?
A: prevented; also recorded: significantly attenuated

Q: What about the activity at 50 µM (SH-SY5Y cells [11]; Homo sapiens, SH-SY5Y, 50 μM pretreatment, 1 mM SNP 12 h, read-out: MMP, % of control group) of the same compound?
A: 71%

Q: What about the activity at 100 µM (SH-SY5Y cells [11]; Homo sapiens, SH-SY5Y, 100 μM pretreatment, 1 mM SNP 12 h, read-out: MMP, % of control group) of the same compound?
A: 88%

Q: What about the activity at 200 µM (SH-SY5Y cells [11]; Homo sapiens, SH-SY5Y, 200 μM pretreatment, 1 mM SNP 12 h, read-out: MMP, % of control group) of the same compound?
A: 87%

Q: And the “MMP, substance alone” value (SH-SY5Y cells [11]; no SNP, FIG. 4B)?
A: did not show any alterations in MMP
